Data: US20250197864A1, “LNCRNA TRANSCRIPTS IN MELANOMAGENESIS” (The Regents of the University of California, priority 2021, published 2025)

Tested on: gene expression in D04 melanoma cells
Test: RNA-Seq differential expression analysis (DESeq2)
Type: cell-based, human
Protocol: Total RNA was isolated using the RNeasy mini Kit (QIAGEN) following the manufacturer's protocol. Quality check for extracted RNA was done using 2100 Bioanalyzer (Agilent Technologies, USA) or Tapestation System (Agilent Technologies, USA). […] For samples used for identification of MAPK-responsive lncRNAs, paired-end, 101-bp sequencing was performed by Centrillion Genomic Services (Centrillion Biosciences, USA) on an Illumina HiSeq 2000. For DE gene analysis of ASO-transfected D04 samples, paired-end, 2×150-bp sequencing was performed by Genewiz (USA) on a Illumina HiSeq.
Sequence reads were aligned to the human genome (hg19) using TopHat (Version 2.0.11).
Differential expression (DE) analysis was done using DESeq2. Differentially expressed genes were defined by more than 1.5-fold changes (log 2 >0.58 or <−0.58) in expression with FDR<0.05. GO term analysis was done using DAVID Functional Annotation Clustering analysis.
To examine the biomolecular changes upon TRASH-inhibition in melanoma, D04 cells were treated with TRASH-ASOs (SEQ ID NO:15) and Control-ASOs and RNA was extracted and used for RNA-Seq. […] These GO terms consisted of genes encoding growth factors, tyrosine kinases, G protein coupled receptor subunits, and collagen subunits. Scatter plot diagram showing differential gene expression after TRASH-ASO treatment compared to Control-ASO treatment. (cut-off for significance was adjusted p-value <0.05). Data was obtained from RNA-Seq of D04 melanoma cells, treatment period was three days. (FIG. 5c)

[1] = D04 cells, three days, vs Control-ASO, cut off >1.5-fold change and FDR <0.05

## GACTGGAGATAATTAA (gapmer, pattern not given here) [SEQ ID NO: 15, GapmeR ASO targeting AC004540.4 (TRASH), exon region of both isoforms; used for in vitro experiments]
CATSPERG (ENSG00000099338)
  log2FoldChange: 1.259
CCDC187 (ENSG00000260220)
  log2FoldChange: 2.881
CD274 (ENSG00000120217)
  log2FoldChange: 1.226
CD300C (ENSG00000167850)
  log2FoldChange: 2.474
CDH4 (ENSG00000179242)
  log2FoldChange: 1.668
CELF2 (ENSG00000048740)
  log2FoldChange: −0.6612
CFI (ENSG00000205403)
  log2FoldChange: −0.6803
CHCHD10 (ENSG00000250479)
  log2FoldChange: −0.6153
CHL1 (ENSG00000134121)
  log2FoldChange: −0.6927
CHMP1B2P (ENSG00000278530)
  log2FoldChange: −0.6924
CIITA (ENSG00000179583)
  log2FoldChange: −0.6508
CLDN3 (ENSG00000165215)
  log2FoldChange: 1.402
CNTN1 (ENSG00000018236)
  log2FoldChange: −0.6103
CNTNAP3B (ENSG00000154529)
  log2FoldChange: −0.6749
COL4A5 (ENSG00000188153)
  log2FoldChange: −0.6293
COL20A1 (ENSG00000101203)
  log2FoldChange: 2.951
COL27A1 (ENSG00000196739)
  log2FoldChange: −0.6335
COLGALT2 (ENSG00000198756)
  log2FoldChange: −0.6617
CREB3L3 (ENSG00000060566)
  log2FoldChange: −0.704
CREG2 (ENSG00000175874)
  log2FoldChange: −0.6351
CSF2RB (ENSG00000100368)
  log2FoldChange: 3.672
CSMD3 (ENSG00000164796)
  log2FoldChange: −0.6823
CX3CL1 (ENSG00000006210)
  log2FoldChange: −0.5835
CYP4F32P (ENSG00000223564)
  log2FoldChange: −0.6527
CYP27A1 (ENSG00000135929)
  log2FoldChange: −0.625
[1]
  number of genes down-regulated: 574 genes
  number of genes up-regulated: 493 genes
DAW1 (ENSG00000123977)
  log2FoldChange: 2.338
DBNDD1 (ENSG00000003249)
  log2FoldChange: −0.6098
DCAF8L2 (ENSG00000189186)
  log2FoldChange: −0.6365
DCLK1 (ENSG00000133083)
  log2FoldChange: 2.001
DHRS3 (ENSG00000162496)
  log2FoldChange: −0.6585
DHRS11 (ENSG00000278535)
  log2FoldChange: −0.6876
DLEU7 (ENSG00000186047)
  log2FoldChange: 1.438
DLG4 (ENSG00000132535)
  log2FoldChange: −0.6697
DLX1 (ENSG00000144355)
  log2FoldChange: −0.6655
DMPK (ENSG00000104936)
  log2FoldChange: −0.6857
DNAH6 (ENSG00000115423)
  log2FoldChange: 1.798
DNAH11 (ENSG00000105877)
  log2FoldChange: 1.75
DOK7 (ENSG00000175920)
  log2FoldChange: 1.741
DPF3 (ENSG00000205683)
  log2FoldChange: 1.473
DRGX (ENSG00000165606)
  log2FoldChange: 1.312
DYNC1I2 (ENSG00000077380)
  log2FoldChange: −0.6997
EMILIN1 (ENSG00000138080)
  log2FoldChange: −0.6247
ENO3 (ENSG00000108515)
  log2FoldChange: −0.6026
ENOX1 (ENSG00000120658)
  log2FoldChange: −0.7019
ENOX2 (ENSG00000165675)
  log2FoldChange: −0.6448
ENSG00000006459, up-regulated list
  log2FoldChange KDM7A: 0.6751
ENSG00000006606, up-regulated list
  log2FoldChange CCL26: 0.6667
ENSG00000023445, up-regulated list
  log2FoldChange BIRC3: 0.9484
ENSG00000049759, up-regulated list
  log2FoldChange NEDD4L: 0.9476
ENSG00000050438, up-regulated list
  log2FoldChange SLC4A8: 1.215
ENSG00000052749, up-regulated list
  log2FoldChange RRP12: 0.614
ENSG00000053524, up-regulated list
  log2FoldChange MCF2L2: 0.71
ENSG00000058335, up-regulated list
  log2FoldChange RASGRF1: 1.152
ENSG00000060762, up-regulated list
  log2FoldChange MPC1: 0.9395
ENSG00000065621, up-regulated list
  log2FoldChange GSTO2: 0.6503
ENSG00000070182, up-regulated list
  log2FoldChange SPTB: 0.7656
ENSG00000070669, up-regulated list
  log2FoldChange ASNS: 0.7766
ENSG00000072041, up-regulated list
  log2FoldChange SLC6A15: 0.8053
ENSG00000073711, up-regulated list
  log2FoldChange PPP2R3A: 0.6253
ENSG00000075618, up-regulated list
  log2FoldChange FSCN1: 0.7766
ENSG00000076513, up-regulated list
  log2FoldChange ANKRD13A: 0.723
ENSG00000080166, up-regulated list
  log2FoldChange DCT: 0.9874
ENSG00000081923, up-regulated list
  log2FoldChange ATP8B1: 0.9522
ENSG00000082497, up-regulated list
  log2FoldChange SERTAD4: 0.7371
ENSG00000085563, up-regulated list
  log2FoldChange ABCB1: 0.7955
ENSG00000086696, up-regulated list
  log2FoldChange HSD17B2: 0.6195
ENSG00000086730, up-regulated list
  log2FoldChange LAT2: 0.8215
ENSG00000087074, up-regulated list
  log2FoldChange PPP1R15A: 0.8007
ENSG00000090382, up-regulated list
  log2FoldChange LYZ: 0.9901
ENSG00000095203, up-regulated list
  log2FoldChange EPB41L4B: 1.165
ENSG00000095383, up-regulated list
  log2FoldChange TBC1D2: 0.7709
ENSG00000095752, up-regulated list
  log2FoldChange IL11: 1.064
ENSG00000096696, up-regulated list
  log2FoldChange DSP: 0.6307
ENSG00000099812, up-regulated list
  log2FoldChange MISP: 1.058
ENSG00000099834, up-regulated list
  log2FoldChange CDHR5: 0.8144
ENSG00000100031, up-regulated list
  log2FoldChange GGT1: 0.8806
ENSG00000100385, up-regulated list
  log2FoldChange IL2RB: 0.8537
ENSG00000100867, up-regulated list
  log2FoldChange DHRS2: 0.8953
ENSG00000100994, up-regulated list
  log2FoldChange PYGB: 0.8557
ENSG00000101187, up-regulated list
  log2FoldChange SLCO4A1: 1.202
ENSG00000101680, up-regulated list
  log2FoldChange LAMA1: 0.7271
ENSG00000102003, up-regulated list
  log2FoldChange SYP: 1.211
ENSG00000103154, up-regulated list
  log2FoldChange NECAB2: 0.9871
ENSG00000104419, up-regulated list
  log2FoldChange NDRG1: 0.6175
ENSG00000104907, up-regulated list
  log2FoldChange TRMT1: 0.655
